One assay has as its target T1, IRAK1 (Homo sapiens, UniProt P51617).
T1 construct: His-TEV-IRAK1 (194-712); His (N); TEV cleavage site (N)
The assay can be described thus: IRAK1 enzymatic assay (ADP-Glo luminescence). It counts as biochemical. Conditions: purified human recombinant His-TEV-IRAK1 (194-712). The method, boiled down: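 Recombinant human His-TEV-IRAK1 (194-712), 0.3 μg/ml, preincubated 15 min at RT with compounds (10 μM to 0.5 nM) in 50 mM Hepes pH 7.0, 10 mM MgCl2, 2 mM DTT, 0.1% BSA. ATP-started reaction run 2 hours at RT; ADP formed from ATP hydrolysis/autophosphorylation read by ADP-Glo luminescence.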
A general note: In ADP-Glo the light output rises with the ADP produced.

Another assay deals with T2, IRAK4 (Homo sapiens, UniProt Q9NWZ3).
T2 construct: His-TEV-IRAK4 (1-460); His (N); TEV cleavage site (N)
T2 sequence (Q9NWZ3 1-460): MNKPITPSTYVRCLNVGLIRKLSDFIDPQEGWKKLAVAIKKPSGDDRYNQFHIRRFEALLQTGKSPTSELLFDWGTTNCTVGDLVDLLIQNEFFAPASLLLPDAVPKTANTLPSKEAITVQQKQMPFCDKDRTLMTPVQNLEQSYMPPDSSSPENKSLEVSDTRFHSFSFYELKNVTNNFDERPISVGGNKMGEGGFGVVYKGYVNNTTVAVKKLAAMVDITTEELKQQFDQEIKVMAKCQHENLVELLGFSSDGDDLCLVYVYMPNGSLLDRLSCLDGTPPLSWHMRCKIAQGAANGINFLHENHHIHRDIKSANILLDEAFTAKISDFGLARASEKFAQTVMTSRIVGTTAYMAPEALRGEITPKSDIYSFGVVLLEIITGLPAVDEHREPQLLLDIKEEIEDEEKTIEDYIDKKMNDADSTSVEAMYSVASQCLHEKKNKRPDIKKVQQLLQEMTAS
The assay can be described thus: IRAK4 enzymatic assay (ADP-Glo luminescence). Conditions: purified human recombinant His-TEV-IRAK4 (1-460), ATP 2 μM. It is filed as biochemical. The method, boiled down:
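Recombinant His-TEV-IRAK4 (1-460) at 0.3 μg/ml preincubated 15 min at RT with compounds (10 μM to 0.5 nM) in Hepes pH 7.0 buffer with MgCl2/MnCl2. Reaction started with 2 μM ATP and 300 nM STK1-biotin peptide, run 2 h at RT. ADP formed read by ADP-Glo luminescence.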

Usually IC50 stands for the concentration that inhibits the measured activity by half.

T1 sequence (P51617 194-712): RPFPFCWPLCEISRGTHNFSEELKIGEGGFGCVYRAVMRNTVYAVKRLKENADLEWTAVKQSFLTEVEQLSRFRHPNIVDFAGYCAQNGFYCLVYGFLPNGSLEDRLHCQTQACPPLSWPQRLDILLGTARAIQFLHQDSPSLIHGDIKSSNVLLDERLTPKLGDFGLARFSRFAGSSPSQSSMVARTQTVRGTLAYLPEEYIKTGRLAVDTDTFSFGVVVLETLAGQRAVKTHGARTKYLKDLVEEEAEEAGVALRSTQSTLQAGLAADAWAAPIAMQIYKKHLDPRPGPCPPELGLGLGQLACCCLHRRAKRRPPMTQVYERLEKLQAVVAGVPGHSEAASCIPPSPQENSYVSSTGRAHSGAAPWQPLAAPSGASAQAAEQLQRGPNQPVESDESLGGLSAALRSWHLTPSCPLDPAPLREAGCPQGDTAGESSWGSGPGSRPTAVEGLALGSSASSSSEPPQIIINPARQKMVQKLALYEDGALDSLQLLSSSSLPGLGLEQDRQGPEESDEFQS

Consider `O=C(/N=c1\[nH]c2cc(N3CCOCC3=O)c(C3CC3)cc2n1CCCO)c1cccc(C(F)F)c1` [Example 209, (E)-N-(6-cyclopropyl-1-(3-hydroxypropyl)-5-(3-oxomorpholino)-1H-benzo[d]imidazol-2(3H)-ylidene)-3-(difluoromethyl)benzamide], for which the IC50 at IRAK1 and on IRAK4 was ≤ 100 nM in each case.

Consider `O=C(/N=c1\[nH]c2cc(N3CCOCC3=O)cc(F)c2n1CCCO)c1cccc(C(F)(F)F)c1` [Example 210, (E)-N-(7-fluoro-1-(3-hydroxypropyl)-5-(3-oxomorpholino)-1H-benzo[d]imidazol-2(3H)-ylidene)-3-(trifluoromethyl)benzamide], for which the IC50 on IRAK1 was 100 to 1000 nM; at IRAK4 it was ≤ 100 nM.

Consider `O=C(/N=c1\[nH]c2cc(N3CCOCC3=O)c(OC(F)F)cc2n1CCCO)c1cccc(C(F)(F)F)c1` [Example 211, (E)-N-(6-(difluoromethoxy)-1-(3-hydroxypropyl)-5-(3-oxomorpholino)-1H-benzo[d]imidazol-2(3H)-ylidene)-3-(trifluoromethyl)benzamide], for which the IC50 at IRAK1 and at IRAK4 was ≤ 100 nM in each case.

Turning to `O=C(/N=c1\[nH]c2cc(N3C(=O)CN4CCC3CC4)ccc2n1CCCO)c1cccc(C(F)F)c1` [Example 212, (E)-3-(difluoromethyl)-N-(1-(3-hydroxypropyl)-5-(3-oxo-1,4-diazabicyclo[3.2.2]nonan-4-yl)-1H-benzo[d]imidazol-2(3H)-ylidene)benzamide], the values for the IC50 at IRAK1 and on IRAK4 were 100 to 1000 nM and ≤ 100 nM, respectively.

Take `O=C(/N=c1\[nH]c2cc(N3CC4CC(N4)C3=O)ccc2n1CCCO)c1cccc(C(F)F)c1` (centres unmarked) [Example 213, (E)-3-(difluoromethyl)-N-(1-(3-hydroxypropyl)-5-(2-oxo-3,6-diazabicyclo[3.1.1]heptan-3-yl)-1H-benzo[d]imidazol-2(3H)-ylidene)benzamide]: the figures for the IC50 on IRAK1 and at IRAK4 were 100 to 1000 nM and ≤ 100 nM, respectively.

With `O=C(/N=c1\[nH]c2cc(N3CC4CCC(C3=O)N4C3CC3)ccc2n1CCCO)c1cccc(C(F)F)c1` (centres unmarked) [Example 214, (E)-N-(5-(8-cyclopropyl-2-oxo-3,8-diazabicyclo[3.2.1]octan-3-yl)-1-(3-hydroxypropyl)-1H-benzo[d]imidazol-2(3H)-ylidene)-3-(difluoromethyl)benzamide], the IC50 on IRAK1 is 100 to 1000 nM; at IRAK4, ≤ 100 nM.

Regarding `O=C(/N=c1\[nH]c2cc(N3CC4CCC(C3=O)N4C3CC3)ccc2n1CCCO)c1cccc(C(F)(F)F)c1` (centres unmarked) [Example 215, (E)-N-(5-(8-cyclopropyl-2-oxo-3,8-diazabicyclo[3.2.1]octan-3-yl)-1-(3-hydroxypropyl)-1H-benzo[d]imidazol-2(3H)-ylidene)-3-(trifluoromethyl)benzamide], the IC50 on IRAK1 was > 1000 nM; on IRAK4, ≤ 100 nM.

On to `O=C(/N=c1\[nH]c2cc(N3CC4CC(N4)C3=O)ccc2n1CCCO)c1cccc(C(F)(F)F)c1` (centres unmarked) [Example 216, (E)-N-(1-(3-hydroxypropyl)-5-(2-oxo-3,6-diazabicyclo[3.1.1]heptan-3-yl)-1H-benzo[d]imidazol-2(3H)-ylidene)-3-(trifluoromethyl)benzamide], for which the IC50 at IRAK1 is 100 to 1000 nM; at IRAK4 it was ≤ 100 nM.

On to `O=C(/N=c1\[nH]c2cc(N3CC4CCC(O4)C3=O)ccc2n1CCCO)c1cccc(C(F)(F)F)c1` (centres unmarked) [Example 217, (E)-N-(1-(3-hydroxypropyl)-5-(2-oxo-8-oxa-3-azabicyclo[3.2.1]octan-3-yl)-1H-benzo[d]imidazol-2(3H)-ylidene)-3-(trifluoromethyl)benzamide], for which the IC50 was 100 to 1000 nM on IRAK1 and ≤ 100 nM at IRAK4.

Consider `CC1(C)CCOC(=O)N1c1ccc2c(c1)[nH]/c(=N\C(=O)c1cccc(C(F)F)c1)n2CCCO` [Example 218, (E)-3-(difluoromethyl)-N-(5-(4,4-dimethyl-2-oxo-1,3-oxazinan-3-yl)-1-(3-hydroxypropyl)-1H-benzo[d]imidazol-2(3H)-ylidene)benzamide], for which the IC50 at IRAK1 and on IRAK4 was ≤ 100 nM in each case.

These data come from patent US10059701B2 (Merck Patent GmbH, priority 2015, dated 2018).
